The values that follow come from article PMC7355663, “Microscale Thermophoresis as a Screening Tool to Predict Melanin Binding of Drugs” (Pharmaceutics, 2020).

Like-named read-outs stand apart in the source and are kept apart here.

Data set [1] can be described thus: Label-free microscale thermophoresis (MST) melanin binding assay. Conditions: Table S2; 80% excitation power; read-out: Kd, initial fluorescence mode. A general note: Microscale thermophoresis detects binding through changes in fluorescence in a small temperature gradient.
Experiment in data set [2]: as above
As to the method: Synthetic melanin was purchased from Sigma Aldrich (#M8631-100 mg). Melanin nanoparticles were prepared as described earlier by Fan et al., and low-binding pipette tips (Maxymum RecoveryTM pipet tips, Corning Incorporated, Salt Lake City, UT, USA) and tubes (No stick microtubes, Alpha Laboratories, Hampshire, UK) were used with both melanin and melanin nanoparticles. Briefly, melanin was dissolved into 1 N NaOH with a concentration of 2 mg/mL and stirred by vortexing. The solution was neutralized by adding an equal volume of 1 N HCl. […] After the final centrifugation, the resulting nanoparticles were suspended into a small volume of sterile water and freeze-dried for 48–72 h (ModulyoD-230, Thermo Savant, Holbrook, NY, USA), and stored at −20 °C until the binding assays.
Melanin binding of each of the 13 model compounds was determined (for the concentrations in the assay, see Table 1). The dilution series of drugs were prepared onto a PCR plate (4titude PCR Plate, Skirted, #4ti-0740, Brooks Life Sciences, Chelmsford, MA, USA) in phosphate buffered saline (PBS, pH 7.4). […] The compound dilutions (10 µL) were transferred into 0.2 mL PCR tube strips (#TBS0201, Bio-Rad Laboratories, Inc., Hercules, CA, USA), and an equal volume of 1 mg/mL melanin nanoparticle dilution was added, resulting in a final melanin concentration of 0.5 mg/mL. At least three biological replicates (individually incubated dilution series) were prepared for each compound (n = 3–5). A reference sample containing only melanin nanoparticles and PBS (pH 7.4) was included in each assay to determine the unbound state in the thermophoresis experiment. Melanin nanoparticles were incubated with the compounds at room temperature for at least 2 h.
After >2 h incubation, the melanin–ligand complexes were mixed gently with a pipette to ensure melanin solution homogeneity and then transferred into capillaries (Monolith NT.115 Premium capillaries, #MOK025, NanoTemper Technologies GmbH, München, Germany). The samples were analyzed with a Monolith NT.115 pico device using MO.Control Software (both from NanoTemper Technologies GmbH, München, Germany) using nano-blue excitation, LED light adjusted to 60% excitation power, and infrared laser (MST power) set to high. […] The equation is based on the Langmuir binding isotherm. […] Equation (1) is a follows:(1) f(c)=Unbound+(Bound−Unbound)×c+c(target)+Kd−(c+c(target)+Kd)^2−4c×c(target)/2c(target) where f(c) is the fraction bound at a given ligand concentration c. Unbound is either the normalized fluorescence signal (Fnorm; MST mode) or raw fluorescence counts (initial fluorescence mode) of the target alone. Bound is either the normalized fluorescence signal or raw fluorescence counts (initial fluorescence mode) of the melanin–ligand complex. Kd is the dissociation constant or binding affinity, and c (target) is the final concentration of the target in the assay.
The normalized fluorescence is the ratio of relative fluorescence of the selected region after heating (hot region) and relative initial fluorescence before the heating (cold region, i.e., relative fluorescence values before the infrared laser was switched on). The MST traces displaying the changes in the relative fluorescence over time (heating) with the selected hot and cold regions are presented in the Supplementary Materials. In the case of ligand-induced changes in the initial raw fluorescence counts, the raw fluorescence counts prior to the heating were used (initial fluorescence mode). If the ligand-induced fluorescence changes were not observed, the normalized fluorescence signals (MST mode) were used to determine the Kd (for additional information, see the Supplementary Materials). […] Affinity Analysis Software.
Kd determination strategies. The Kd values were tested in both initial fluorescence and the above
described MST modes within the MO Affinity Analysis Software (Fig. S1, Table S1) and the Kd values

The subject of data set [3] is melanin. The data set can be described thus: Prediction of unbound ligand fraction in vivo (human RPE-choroid). The note with it: human, human RPE-choroid (predicted), 34.8 mg/mL melanin. As to the method:
(§1) Unbound ligand fractions in vivo were calculated considering melanin binding as the only driver of nonspecific tissue binding.
(§2) Linear regression was used to describe the relationship between the Kd values obtained with the MST and the predicted unbound ligand fractions in human RPE-choroid obtained with calculations described above.
(§3) The Kd values obtained with MST consider only one class of binding site, whereas the Sips isotherm (the traditional binding assay) depicts different binding energies and binding sites. […] This approach is relevant to evaluate the melanin binding.

Experiment in data set [4]: as above
Conditions: class by predicted fraction unbound in vivo, human RPE-choroid. As to the method:
as §1, §2, §3

For data set [5], the system named is melanin. In words: in vitro. The note with it: pig, pH 7.4. As to the method:
(§4) The traditional melanin binding assay was conducted with melanin from the porcine RPE-choroid. We used previously published methods for melanin isolation and drug binding. Fresh melanin suspension and test compound solutions were prepared before each experiment. The melanin suspension (in PBS, pH 7.4) was sonicated in a bath sonicator for 30 min (Elmasonic S 40 H, Elma Schmidbauer GmbH, Singen, Germany) before the experiment. The incubation with test compounds took place at 37 °C on a shaker (220 rpm), and the melanin concentration in the assay was 1 mg/mL (0.15 mg/well). In the control samples, PBS buffer (pH 7.4) was used instead of the melanin suspension. Three individual replicates were made for each experiment. After 20 h incubation, the samples were centrifuged at 20,000× g for 20 min, and supernatant containing the unbound ligand was collected for analysis.
(§5) Samples having an estimated concentration of 0.5 µM or higher were analyzed with ultra-high pressure liquid chromatography (UPLC) (Acquity UPLC, Waters, Milford, MA, USA) with UV detection (Photodiode Array Detector, Waters, MA, USA). The separation was carried out on a Luna Omega Polar C18 (1.6 μm, 2.1 × 50 mm^2) column (Phenomenex) at 30 °C. Injection volume was 4 µL. Gradient mode was used for all the compounds with an acetonitrile/15 mM phosphate buffer (pH 2) mobile phase. Gradient duration was 3−5 min depending on the sample (levofloxacin, terazosin, and papaverine).
(§6) All internal standards, namely levofloxacin D8, terazosin D8, and papaverine D3, were purchased from Toronto Research Chemicals (Toronto, ON, Canada). […] Injection volumes were 0.2 μL for terazosin, 0.3 µL for levofloxacin, and 0.15 µl for papaverine with a flow through needle injection system. The mobile phase consisted of 0.1% formic acid (Merck, Darmstadt, Germany) in ultrapure water (A) and 100% LC–MS grade acetonitrile (Honeywell, Seelze, Germany) (B). […] The gradient for levofloxacin was the same as for papaverine, but the total run time was 6 min. The flow rate was 0.3 mL/min for all the compounds.
(§7) Mass spectrometric measurements were carried out using a Waters Xevo TQ-S triple quadruple mass spectrometer coupled with an electrospray ionization (ESI) on a positive mode for all three compounds. Optimized MS-parameters were as follows: capillary 1.5 kV (terazosin and papaverine), 3.5 kV (levofloxacin), cone voltage 80 V (terazosin) and 8 V (terazosin D8), 22 V (papaverine and papaverine D3), 28 V (levofloxacin and levofloxacin D8), source temperature 150 °C, and desolvation temperature 500 °C (terazosin) or 450 °C (papaverine and levofloxacin). Nitrogen (AGA, Helsinki, Finland) was used as the desolvation gas (1000 L·h^−1 terazosin, 800 L·h^−1 papaverine and levofloxacin) and the cone gas (150 L·h^−1), argon (AGA, Helsinki, Finland) as the collision gas. Multiple reaction monitoring (MRM) mode was employed for quantification. […] The resulting data were analyzed with Waters MassLynx V4.1 software. To consider the effect of melanin on the analyses, separate samples containing only melanin in PBS (with no test compound) were also studied.
(§8) The binding parameters were determined with Sips isotherm (Equation (2)) as described by Manzanares et al.. B = (Bmax × [L]^n)/(Kd^n + [L]^n)(2) where B is the amount of bound drug (nmol·mg^−^1); Bmax is the maximum binding capacity (nmol·mg^−^1); [L] is the free drug concentration (µM); n is the heterogeneity index (assuming heterogeneity of the surface of the melanin particles); and Kd represents the dissociation constant (µM).

Data set [6] is described as follows: Traditional melanin binding assay (equilibrium binding, Sips isotherm). Conditions: for Target Capacity ± SE, traditional method (Sips isotherm): Bmax multiplied with 0.5 mg/mL melanin concentration of the MST assay. As to the method: as §4, §5, §6, §7, §8
The conditions of data set [7]: average of the two high binders; 34 compounds in cassette; melanin 3.6 mg/mL; data of Pelkonen et al. [6]. As to the method:
as §1

On the set-up of data set [8]: method as in PMID 26741026, PMID 29859954. The note with it: from previous studies, ref [11],[16], cited from earlier work.
For data set [9] the following is noted: monkeys and humans; ref [10]; cited from earlier work.
Where [10] appears, read: 0.5 mg/mL (12.5 µM) melanin nanoparticles, PBS pH 7.4, room temperature, 68% confidence, initial fluorescence mode for compounds marked *, otherwise MST mode, read-out: Kd ± Kd Confidence (MST).
Setting [11] is: Table S2, normalized fluorescence, 60% excitation power, read-out: Kd, MST mode (Fnorm).

The term Kd denotes the free concentration of one partner at which half of the binding sites on the other are occupied at equilibrium, for simple one-to-one binding. Broadly, the fraction unbound is free concentration divided by total concentration. Turning to `C[C@H]1COc2c(N3CCN(C)CC3)c(F)cc3c(=O)c(C(=O)O)cn1c23` [Levofloxacin], the Kd in [1] stood at 54 µM; in data set [2] (setting [10]) it was 46.5 ± 40.1 µM; in data set [2] (setting [11]), 47 µM; in [6] (read-out: Kd ± SE, traditional method (Sips isotherm), 1 mg/mL melanin, PBS pH 7.4, 37 °C, 20 h) it was 157 ± 56 µM. In the data set with melanin [3], the fraction unbound at 1 µM is 0.0033. Further, the “Melanin binding class based on traditional assay” value in data set [4] is “high”. Moreover, the fraction unbound at 20 h, 1 µM with melanin [5] was determined as 0.28. Besides, the “Target Capacity ± SE, traditional method (Sips isotherm)” value in data set [6] worked out at 36 ± 5.5 µM. In data set [6] (heterogeneity index, 1 mg/mL melanin, PBS pH 7.4, 37 °C, 20 h), the “n ± SE, traditional method (Sips isotherm)” value is given as 0.73 ± 0.02. Further, in data set [6] (maximum binding capacity, 1 mg/mL melanin, PBS pH 7.4, 37 °C, 20 h), the “Bmax ± SE, traditional method (Sips isotherm)” value is listed as 72 ± 11 nmol/mg.
Turning to `Clc1ccc2nsnc2c1NC1=NCCN1` [tizanidine], the “unbound fraction in cassette assay compared to single compound incubation” value in data set [7] is on record as 2.1 fold.
For the compound `CC(C)(C)NC[C@H](O)COc1nsnc1N1CCOCC1` [Timolol], the Kd was 260 ± 128 µM in [2] (setting [10]); 260 µM in data set [2] (setting [11]); 120 ± 30 µM in data set [8] (read-out: Kd ± SE, traditional method (Sips isotherm)). For the same compound, the free fraction (fraction unbound) at 1 µM in the data set on melanin [3] was 0.057. Further, the “Melanin binding class based on traditional assay” value in data set [4] was “intermediate”. For the same compound, the “n ± SE, traditional method (Sips isotherm)” value in data set [8] (heterogeneity index) is 0.95 ± 0.03. In [8] (maximum binding capacity), the “Bmax ± SE, traditional method (Sips isotherm)” value is 39 ± 6 nmol/mg. In the data set on melanin [5], the fraction unbound at 20 h, 1 µM came to 0.71. The “Target Capacity ± SE, traditional method (Sips isotherm)” value in data set [6] is recorded as 19.5 ± 3 µM.
Regarding `CC(C)NCC(O)COc1ccc(CCOCC2CC2)cc1` (stereo not drawn) [betaxolol], in data set [9], the “concentration in pigmented eye tissues compared to neighboring non-pigmented tissues” value is 20–150 fold.
